Experimental findings from ChEMBL document CHEMBL1201862, “PubChem BioAssay data set” (2004) are described below.

Common to all, as to experiment: DTP human tumour cell line panel, 48 h
Test [1] concerns BT-549.
In test [2] the test system is M19-MEL.
Test [3] deals with XF498.
Test [4] has as its system SNB-78.
Test [5] deals with LXFL 529.
In test [6] the test system is KM-20L2.
The test system of test [7] is DMS-273.
Test [8] concerns HOP-18.

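Protocol summary: plate cells (96-well), add compound at 5 concentrations, incubate 48 h, interpolate endpoints linearly. Abbreviation: GI50, concentration required for 50% inhibition of growth.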 Calls of active or inactive are those of the source. Cut-off read from the data, not from the text of the source: active = GI50 up to about 1.1 µM and inactive = higher. *1 amine or outer side, *2 acyl side, *3 side chain or, on linkers, in order; H or OH if unused. Where a SMILES comes first, the peptide text is derived from it. [ ]: non-standard residue; d: D form. The star is where a group is joined. ξ: configuration not given here. X43 = CCC(=O)CC(O)CC(C)CC(N[*:1])C(=O)[*:2]; ξLeu(3ξ-OH) = CC(C)C(O)C(N)C(=O)O; ξPro(4ξ-Me) = CC1CNC(C(=O)O)C1; X42 = CCC(C)/C=C/C(=O)*; Aib = CC(C)(N)C(=O)O; X44 = CC(CN(C)C)N*; βAla = NCCC(=O)O Some results are limits rather than exact numbers.

For the compound `CCC1(CC)C(=O)OC(=O)C1(CC)CC`, in test [1], the GI50 is > 100 µM (inactive). Take `S=C(Nc1ccc2cn[nH]c2c1)Nc1ccc2cn[nH]c2c1`: the GI50 in test [1] was 27.6 µM (inactive). Take `CC(C)(C)C(=O)c1c(O)c2ccccc2c2ccccc2c1=O`: in test [1], the GI50 was 32.4 µM (inactive). As for `C[N+]12C=CC=C1C(N1CCCC1)c1sc(-c3ccc(Cl)cc3)cc12` (stereo unspecified), the GI50 in test [1] is 10.3 µM (inactive).

Take `Clc1ccccc1C(Nc1ncccn1)Nc1ncccn1`: in test [1], the GI50 is > 100 µM (inactive).

In the case of `O=C(NN=C1NCCCCN1)Nc1ccc(Cl)cc1`, in test [1], the GI50 was > 100 µM (inactive).

For `C[C@]12CC[C@H]3[C@@H](CCC4=C(Br)C(=O)C=C[C@@]43O)[C@@H]1CCC2=O`, the GI50 in test [1] is 20.7 µM (inactive). On to `NC(CSSCC(N)Cc1ccccc1)Cc1ccccc1` (stereo unspecified), for which the GI50 in test [2] is 49 µM (inactive); in test [3], 27.1 µM (inactive); in test [4], > 100 µM (inactive); in test [5] it was 36.1 µM (inactive); in test [6], 71.1 µM (inactive); in test [7], > 10 µM (inactive).

On to `Clc1ccc(/C=C/c2nc(-c3ccc(Cl)cc3)cn3c2nc2ccccc23)cc1`, for which, in test [1], the GI50 is > 100 µM (inactive). Same read-out and setting: the value for `CCOC(=O)NNC(=O)NCCNC(=O)NNC(=O)OCC` was > 100 µM (inactive). The same measure, in the same setting: as for `CC1=NNC(=O)C1C1CC(c2c[nH]c3ccccc23)=NNC1=S` (stereo unspecified), the figure is 50.2 µM (inactive); as for `CC1(C)[C@@H](Cn2cnc3c(N)ncnc32)CC[C@@]1(C)CO`, > 100 µM (inactive); as for `O=C1c2ccccc2C(=O)c2c1c1cc(O)ccc1n2Cc1ccc(Cl)cc1Cl`, 18.5 µM (inactive). On to `CCOC1=NC(=O)CC(c2ccccc2)S1` (stereo unspecified), for which the GI50 in test [2], in test [3], in test [4], in test [5], in test [6] and in test [7] was > 100 µM (inactive) each time.

As for `CC1CC(NN)=Nc2ccccc2N1` (stereo unspecified), the GI50 in test [1] is > 100 µM (inactive).

With `C[C@]12CCC3c4ccc(O)cc4CC[C@H]3C1CC(=O)N(CCN1CCCC1)C2=O` (stereo partly specified), the GI50 in test [1] was > 10 µM (inactive). As for `COc1cccc2c(NNc3ccc(Cl)cc3)c3ccc([N+](=O)[O-])cc3nc12`, in test [1], the GI50 is 14 µM (inactive).

For the compound `CC1CC(C(=O)OC2OC(COC3OC(CO)C(OC4OC(C)C(O)C(O)C4O)C(O)C3O)C(O)C(O)C2O)C2CCC3(C)C(=CCC4(C)C3CCC3C(C)(CO)C(O)C(O)CC34C)C2C1C` (stereo unspecified), in test [1], the GI50 was 17.7 µM (inactive). For the compound `CC(=O)OCC12C(=O)C[C@@H](C)C3(CC(c4ccoc4)OC3=O)C1CCC(OC(C)=O)C21CO1` (stereo partly specified), the GI50 in test [1] is > 100 µM (inactive). Turning to `COc1c(C)cc2c(c1O)C1C3[C@H]4SC[C@@]5(NCCC6=C5NC5C=CC=CC65)C(=O)OCC(c5c6c(c(C)c(OC(C)=O)c54)OCO6)N3[C@@H](O)C(C2)N1C` (stereo partly specified), the GI50 in test [2], in test [3], in test [5], in test [6] and in test [7] was < 0.01 µM (active) throughout.

Turning to `COc1ccc(CSC2=C(C#N)C(=O)NC3(CCCCC3)S2)cc1`, the GI50 in test [1] is 48.2 µM (inactive). On to `C[N+]1(C(CO)Cc2c[nH]c3ccccc23)Cc2ccccc2C1` (stereo unspecified), for which, in test [1], the GI50 is 77.6 µM (inactive). Consider `CSc1nc2cc(S(=O)(=O)N3CCCCC3)ccc2s1`, for which the GI50 in test [1] is > 100 µM (inactive). Turning to `NC1=NS(=O)(=O)Nc2nc(-c3ccc([N+](=O)[O-])cc3)[nH]c21`, the GI50 in test [8], in test [2], in test [5] and in test [7] was > 100 µM (inactive) each time.

Regarding `CN(C)CCCNC(=O)c1cc(NC(=O)c2cc(NS(=O)(=O)c3ccc4c(c3)C(=O)c3ccccc3C4=O)cn2C)cn1C`, in test [1], the GI50 was 52.7 µM (inactive). On the same count and under the same terms, as for `CCn1c(=O)c2c3cc(OC(C)=O)ccc3oc2c2ccc(OC(C)=O)cc21`, the figure is 30.5 µM (inactive). As to `OCc1ccc2c(c1)CC1(Cc3ccc(/C=N/O)cc3C1)C2` (stereo unspecified), the GI50 in test [1] is 10.4 µM (inactive). The same measure, in the same setting: as for `O=C1/C(=C/c2ccccc2)CCc2ccc([N+](=O)[O-])cc21`, the figure is 31.3 µM (inactive); as for `CC(C)Cc1c(C#N)c(C#N)c(N)n1Cc1ccccc1`, > 100 µM (inactive); as for `c1ccc(/N=C2\c3ccccc3CN2c2ccccc2)cc1`, > 100 µM (inactive). On the same count and under the same terms, the value for `O=C(O)CCN1C(=S)CSC1=S` was > 100 µM (inactive). The same measure, in the same setting: as for `NS(=O)(=O)c1nnc(NC(=O)C23CC4CC(CC(C4)C2)C3)s1`, the figure is 82.2 µM (inactive); as for `COc1cccc(C2c3cc4c(cc3OC(N3CCCCC3)C2C)OCO4)c1O` (stereo unspecified), 9.2 µM (inactive). As to `Cc1cn(C2CC(N(O)Cc3ccccc3)C(CO)O2)c(=O)[nH]c1=O` (stereo unspecified), the GI50 in test [2], in test [3], in test [4], in test [5], in test [6] and in test [7] was > 100 µM (inactive) in each case. Consider `CCC(=O)CC(O)CC(C)CC(NC(=O)C1CC(C)CN1C(=O)/C=C/C(C)CC)C(=O)NC(C(=O)NC(C)(C)C(=O)NC(CC(C)C)C(=O)NC(CC(C)C)C(=O)NC(C)(C)C(=O)NC(C)(C)C(=O)NCCC(=O)NC(C)CN(C)C)C(O)C(C)C` (stereo unspecified) (X42-[ξPro(4ξ-Me)][X43][ξLeu(3ξ-OH)][Aib]LL[Aib][Aib][βAla]-X44; configuration not given here), for which the GI50 in test [1] is 0.29 µM (active). For `COC1(OC)C[C@H](C)[C@@]23O[C@]24C2=CC(=O)C=CC2=N[C@H]3C#C/C=C\C#C[C@]14O`, the concentration for 50% growth inhibition (GI50) in test [1] is 1 µM (active). `CC(C)(CO[C@H]1C[C@H]2CC[C@@]1(C)C2(C)C)[N+](=O)[O-]`: the GI50 in test [1] is 21.5 µM (inactive). On to `CCOC(=O)C1(C#N)C(C#N)(C#N)C1(C#N)C#N`, for which the GI50 in test [1] is > 100 µM (inactive). Turning to `OC(C#CCN1CCCC1)(c1ccccc1)c1ccccc1Cl` (stereo unspecified), the GI50 in test [1] is 46.2 µM (inactive).

For the compound `CCC[C@H](O)[C@@H](CNc1cc(NC(C)=O)nc(NC(C)=O)n1)N(Cc1ccccc1)Cc1ccccc1`, the GI50 in test [1] was 16.1 µM (inactive).

As for `Cc1cc(C)nc(NS(=O)(=O)c2ccc(Nc3c4ccccc4nc4c(C(=O)NCCN(C)C)ccc(Cl)c34)cc2)n1`, the GI50 in test [2] is 2.05 µM (inactive); in test [3] it was 5.13 µM (inactive); in test [4], 8.3 µM (inactive); in test [5] it was 1.11 µM (active); in test [6], 2.08 µM (inactive).

In the case of `O=C(N/N=C(COc1cccc(Cl)c1)\N=C\c1ccncc1)c1ccncc1`, the GI50 in test [1] is > 100 µM (inactive). With `COc1ccc(OC)c2sc(N3C(=O)/C(=C/c4ccc(N(C)C)cc4)N=C3c3ccccc3)nc12`, in test [1], the GI50 was 97.1 µM (inactive). Turning to `CC(=O)/C(=C\c1ccc(Cl)c(Cl)c1)C(=O)C(C)CN(C)C` (stereo unspecified), the GI50 in test [1] is 2.26 µM (inactive).

For `COc1cc2cc(C(=O)N3CC(CCl)c4c3cc(NCCN)c3ccccc43)[nH]c2c(OC)c1OC` (stereo unspecified), the GI50 in test [1] was 0.0333 µM (active).

With `Cc1cc(C)c(C(=O)c2nnc3ccccc3c2N)c(C)c1`, the GI50 in test [1] was 63.1 µM (inactive). Consider `O=S(=O)(O)C(CO)c1ccccc1.O=S(=O)(O)Cc1ccccc1` (stereo unspecified), for which the GI50 in test [1] is > 100 µM (inactive). On the same count and under the same terms, as for `COC1=C(OC)C(=O)C(Cc2c(-c3ccccc3)nc3sc(Cl)cn23)=C(C)C1=O`, the figure is 15.7 µM (inactive). Same read-out and setting: the value for `COc1ccc(CCN2C(=O)C=CC2=O)cc1OC` was 17.5 µM (inactive); that for `Cc1nc2ccc(F)cc2c2c1CCN2c1ccccc1` was 23.4 µM (inactive).

What is called GI50 is the concentration that inhibits growth by half.
